Reference: patent publication US20100172854A1, “ANTIBACTERIAL FORMULATIONS” (priority 2007, published 2010)
≈ marks a conversion by molar mass, not a printed value.

Legend:
Type in all cases: cell-based
[1] = tested on: Staphylococcus aureus ATCC 29213; assay: MIC assay; details: ATCC29213, S. aureus ATCC 29213
Method: (§1) The staphylococci were cultured and maintained on Mueller-Hinton Medium (agar and broth) at pH 7.2; cultures were incubated aerobically at 37° C. for 19-20 hours.
(§2) This is a standard international method for quantitatively assessing the antimicrobial activity of a compound in a liquid medium. The method used a sterile 96-well microtitre plate, capable of holding about 200 μl of liquid per well. The wells contained liquid culture medium and ranges of decreasing concentrations of the relevant test compound in doubling dilutions (e.g. 1000, 500, 250, 125 . . . μg/ml, etc. down to 0.49 μg/ml). The culture media were as described above.
(§3) The wells were inoculated with a liquid suspension of freshly grown micro-organism and incubated under the conditions described above. After incubation, the microtitre plate was examined visually (with the aid of a light box) for cloudiness in each well, which would indicate microbial growth. The MIC value was recorded as the lowest concentration of test compound required to inhibit microbial growth, i.e. the lowest concentration for which the liquid in the well remained clear.
(§4) The assays included both negative (culture medium with no micro-organisms) and positive (culture medium plus diluting solvent plus micro-organism) controls.

[2] = tested on: Propionibacterium acnes NCTC 737; assay: MBC assay; details: P. acnes NCTC 737; for MBC: Cutibacterium acnes, NCTC737
Method: (§5) The propionibacteria were cultured and maintained on Wilkins-Chalgren Anaerobe Medium (agar and broth) at pH 6.0; all cultures were incubated anaerobically at 37° C. for 72 hours.
(§6) This assay, normally carried out after an MIC assay, determines the minimum concentration of a compound that is lethal to the micro-organism being tested.
(§7) These samples were then individually sub-cultured on antibiotic-free agar medium, under the incubation conditions described above. Following incubation they were examined visually for microbial growth.

[3] = tested on: Staphylococcus aureus ATCC 29213; assay: MBC assay; details: S. aureus ATCC 29213; for MBC: Staphylococcus aureus, ATCC29213
Method: as §1, §6, §7

[4] = tested on: Propionibacterium acnes NCTC 737; assay: MIC assay; details: Cutibacterium acnes, NCTC737; P. acnes NCTC 737
Method: as §5, §2, §3, §4

[5] = tested on: Clostridium sporogenes ATCC 3584; assay: MIC assay; details: ATCC3584
Method: as §2, §3, §4

[6] = tested on: Actinomyces naeslundii ATCC 12104; assay: MIC assay; details: ATCC12104, read-out: MIC
Method: as §2, §3, §4

[7] = tested on: Enterococcus faecalis ATCC 29212; assay: MIC assay; details: E. faecalis ATCC 29212
Method: as §2, §3, §4

[8] = tested on: Listeria monocytogenes ATCC 15313; assay: MIC assay; details: ATCC15313, read-out: MIC
Method: as §2, §3, §4

[9] = tested on: Bacillus cereus ATCC 11778; assay: MIC assay; details: ATCC11778, read-out: MIC
Method: as §2, §3, §4

[10] = tested on: Clostridium difficile ATCC 7000057; assay: MIC assay; details: Clostridioides difficile, ATCC7000057
Method: as §2, §3, §4

[11] = tested on: Gardnerella vaginalis ATCC 14018; assay: MIC assay; details: ATCC14018
Method: as §2, §3, §4

[12] = tested on: Corynebacterium mucifaciens ATCC 700355; assay: MIC assay; details: C. mucifaciens ATCC 700355
Method: as §2, §3, §4

[13] = tested on: Prevotella nigrescens ATCC 33563; assay: MIC assay; details: ATCC33563
Method: as §2, §3, §4

[14] = tested on: Streptococcus sobrinus ATCC 33478; assay: MIC assay; details: ATCC33478
Method: as §2, §3, §4

[15] = tested on: Streptococcus pyogenes ATCC 12344; assay: MIC assay; details: S. pyogenes ATCC 12344
Method: as §2, §3, §4

[16] = tested on: Porphyromonas gingivalis NCTC 11834; assay: MBC assay
Method: (§8) The P. gingivalis strains were cultured and maintained on Wilkins-Chalgren Anaerobe Medium (agar and broth) at pH 7.0; all cultures were incubated anaerobically at 37° C. for 5-7 days.
as §6, §7

[17] = tested on: Porphyromonas gingivalis ATCC 53978; assay: MBC assay
Method: as §8, §6, §7

[18] = tested on: Porphyromonas gingivalis ATCC BAA-308; assay: MBC assay
Method: as §8, §6, §7

[19] = tested on: Porphyromonas gingivalis NCTC 11834; assay: MIC assay; details: NCTC11834
Method: as §8, §2, §3, §4

[20] = tested on: Porphyromonas gingivalis ATCC 53978; assay: MIC assay; details: ATCC53978
Method: as §8, §2, §3, §4

[21] = tested on: Porphyromonas gingivalis ATCC BAA-308; assay: MIC assay; details: ATCCBAA308
Method: as §8, §2, §3, §4

[22] = tested on: Clostridium sporogenes ATCC 3584; assay: MBC assay
Method: as §6, §7

[23] = tested on: Actinomyces naeslundii ATCC 12104; assay: MBC assay
Method: as §6, §7

[24] = tested on: Listeria monocytogenes ATCC 15313; assay: MBC assay
Method: as §6, §7

[25] = tested on: Bacillus cereus ATCC 11778; assay: MBC assay
Method: as §6, §7

[26] = tested on: Clostridium difficile ATCC 7000057; assay: MBC assay
Method: as §6, §7

[27] = tested on: Gardnerella vaginalis ATCC 14018; assay: MBC assay
Method: as §6, §7

[28] = tested on: Prevotella nigrescens ATCC 33563; assay: MBC assay
Method: as §6, §7

[29] = tested on: Streptococcus sobrinus ATCC 33478; assay: MBC assay
Method: as §6, §7

[30] = tested on: Streptococcus mutans ATCC 35668; assay: MBC assay
Method: (§9) The S. mutans strains were cultured and maintained on Wilkins-Chalgren Anaerobe Medium (agar and broth) at pH 7.0 supplemented with 1 g/L glucose; all cultures were incubated at 37° C. for 48 h in an atmosphere containing 5% CO2.
as §6, §7

[31] = tested on: Streptococcus mutans ATCC 25175; assay: MBC assay
Method: as §9, §6, §7

[32] = tested on: Streptococcus mutans ATCC 35668; assay: MIC assay; details: ATCC35668
Method: as §9, §2, §3, §4

[33] = tested on: Streptococcus mutans ATCC 25175; assay: MIC assay; details: ATCC25175
Method: as §9, §2, §3, §4

## CC(c1cc(C(C)(C)C)cc(C(C)(C)C)c1O)c1cc(C(C)(C)C)cc(C(C)(C)C)c1O [2,2′-ethylidene-bis(4,6-di-tert-butylphenol), reference compound]
[1]
  MIC: > 250 µg/mL
[2]
  MBC: > 250 µg/mL
[3]
  MBC: > 250 µg/mL
[4]
  MIC: > 250 µg/mL

## CC(C)(C)c1cc(Cc2cc(C(C)(C)C)c(O)c(C(C)(C)C)c2)cc(C(C)(C)C)c1O [4,4′-methylenebis(2,6-di-tert-butylphenol), reference compound]
[1]
  MIC: > 250 µg/mL
[2]
  MBC: > 250 µg/mL
[3]
  MBC: > 250 µg/mL
[4]
  MIC: > 250 µg/mL

## CCc1cc(Cc2cc(CC)cc(C(C)(C)C)c2O)c(O)c(C(C)(C)C)c1 [AO 425, 2,2′-methylene-bis(4-ethyl-6-tert-butylphenol)]
[5]
  MIC: 3.9 µg/mL (≈ 10.6 µM)
[6]
  MIC: 0.98 µg/mL (≈ 2.66 µM)
[7]
  activity compared with AO 2246: significantly lower activity
[8]
  MIC: 0.98 µg/mL (≈ 2.66 µM)
[9]
  MIC: 1.95 µg/mL (≈ 5.29 µM)
[10]
  MIC: 7.8 µg/mL (≈ 21.2 µM)
[11]
  MIC: 15.6 µg/mL (≈ 42.3 µM)
[12]
  activity compared with AO 2246: significantly lower activity
[13]
  MIC: 15.6 µg/mL (≈ 42.3 µM)
[14]
  MIC: 31.2 µg/mL (≈ 84.8 µM)
[15]
  activity compared with AO 2246: significantly lower activity
[16]
  MIC/MBC Ratio: 1
[16]; NCTC11834
  MBC: 1.95 µg/mL (≈ 5.29 µM)
[17]
  MIC/MBC Ratio: 1
[17]; ATCC53978, read-out: MBC
  MBC: 0.98 µg/mL (≈ 2.66 µM)
[18]
  MIC/MBC Ratio: 0.5
[18]; ATCCBAA308
  MBC: 3.9 µg/mL (≈ 10.6 µM)
[1]
  MIC: 7.8 µg/mL (≈ 21.2 µM)
[2]
  MBC: 31.2 µg/mL (≈ 84.8 µM)
  MIC/MBC Ratio: 0.25
[19]
  MIC: 1.95 µg/mL (≈ 5.29 µM)
[20]
  MIC: 0.98 µg/mL (≈ 2.66 µM)
[21]
  MIC: 1.95 µg/mL (≈ 5.29 µM)
[22]
  MIC/MBC Ratio: 0.5
[22]; ATCC3584
  MBC: 7.8 µg/mL (≈ 21.2 µM)
[23]
  MIC/MBC Ratio: 0.25
[23]; ATCC12104
  MBC: 3.9 µg/mL (≈ 10.6 µM)
[24]
  MIC/MBC Ratio: 0.125
[24]; ATCC15313
  MBC: 7.8 µg/mL (≈ 21.2 µM)
[25]
  MIC/MBC Ratio: 0.5
[25]; ATCC11778
  MBC: 3.9 µg/mL (≈ 10.6 µM)
[26]
  MIC/MBC Ratio: 1
[26]; Clostridioides difficile, ATCC7000057
  MBC: 7.8 µg/mL (≈ 21.2 µM)
[27]
  MIC/MBC Ratio: 0.5
[27]; ATCC14018
  MBC: 31.2 µg/mL (≈ 84.8 µM)
[28]
  MIC/MBC Ratio: <1
[28]; ATCC33563
  MBC: > 15.6 µg/mL
[29]
  MIC/MBC Ratio: 0.5
[29]; ATCC33478
  MBC: 62.5 µg/mL (≈ 170 µM)
[3]
  MIC/MBC Ratio: 0.125
  MBC: 62.5 µg/mL (≈ 170 µM)
[30]
  MIC/MBC Ratio: <0.03
[30]; ATCC35668
  MBC: > 250 µg/mL
[31]
  MIC/MBC Ratio: 0.25
[31]; ATCC25175
  MBC: 62.5 µg/mL (≈ 170 µM)
[32]
  MIC: 7.8 µg/mL (≈ 21.2 µM)
[33]
  MIC: 15.6 µg/mL (≈ 42.3 µM)
[4]
  MIC: 7.8 µg/mL (≈ 21.2 µM)
